Key:
[1] = biological target: RON (human) (Homo sapiens, UniProt Q04912); assay: RON (human) AlphaScreen kinase assay, Km of ATP; format: biochemical; details: AlphaScreen, Km of ATP; read-out: RON biochemical IC50
In short: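 Reaction was started with enzyme and run 30 min at RT. PT66 donor/acceptor beads in an EDTA-containing Tris pH 7.5 buffer were then added, and the signal was read after 1 h.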

[2] = biological target: MET (human) (Homo sapiens, UniProt P08581); assay: MET (human) AlphaScreen kinase assay, Km of ATP; format: biochemical; details: AlphaScreen, Km of ATP; read-out: Met biochemical IC50
Chain of MET (human) (P08581 25-1390): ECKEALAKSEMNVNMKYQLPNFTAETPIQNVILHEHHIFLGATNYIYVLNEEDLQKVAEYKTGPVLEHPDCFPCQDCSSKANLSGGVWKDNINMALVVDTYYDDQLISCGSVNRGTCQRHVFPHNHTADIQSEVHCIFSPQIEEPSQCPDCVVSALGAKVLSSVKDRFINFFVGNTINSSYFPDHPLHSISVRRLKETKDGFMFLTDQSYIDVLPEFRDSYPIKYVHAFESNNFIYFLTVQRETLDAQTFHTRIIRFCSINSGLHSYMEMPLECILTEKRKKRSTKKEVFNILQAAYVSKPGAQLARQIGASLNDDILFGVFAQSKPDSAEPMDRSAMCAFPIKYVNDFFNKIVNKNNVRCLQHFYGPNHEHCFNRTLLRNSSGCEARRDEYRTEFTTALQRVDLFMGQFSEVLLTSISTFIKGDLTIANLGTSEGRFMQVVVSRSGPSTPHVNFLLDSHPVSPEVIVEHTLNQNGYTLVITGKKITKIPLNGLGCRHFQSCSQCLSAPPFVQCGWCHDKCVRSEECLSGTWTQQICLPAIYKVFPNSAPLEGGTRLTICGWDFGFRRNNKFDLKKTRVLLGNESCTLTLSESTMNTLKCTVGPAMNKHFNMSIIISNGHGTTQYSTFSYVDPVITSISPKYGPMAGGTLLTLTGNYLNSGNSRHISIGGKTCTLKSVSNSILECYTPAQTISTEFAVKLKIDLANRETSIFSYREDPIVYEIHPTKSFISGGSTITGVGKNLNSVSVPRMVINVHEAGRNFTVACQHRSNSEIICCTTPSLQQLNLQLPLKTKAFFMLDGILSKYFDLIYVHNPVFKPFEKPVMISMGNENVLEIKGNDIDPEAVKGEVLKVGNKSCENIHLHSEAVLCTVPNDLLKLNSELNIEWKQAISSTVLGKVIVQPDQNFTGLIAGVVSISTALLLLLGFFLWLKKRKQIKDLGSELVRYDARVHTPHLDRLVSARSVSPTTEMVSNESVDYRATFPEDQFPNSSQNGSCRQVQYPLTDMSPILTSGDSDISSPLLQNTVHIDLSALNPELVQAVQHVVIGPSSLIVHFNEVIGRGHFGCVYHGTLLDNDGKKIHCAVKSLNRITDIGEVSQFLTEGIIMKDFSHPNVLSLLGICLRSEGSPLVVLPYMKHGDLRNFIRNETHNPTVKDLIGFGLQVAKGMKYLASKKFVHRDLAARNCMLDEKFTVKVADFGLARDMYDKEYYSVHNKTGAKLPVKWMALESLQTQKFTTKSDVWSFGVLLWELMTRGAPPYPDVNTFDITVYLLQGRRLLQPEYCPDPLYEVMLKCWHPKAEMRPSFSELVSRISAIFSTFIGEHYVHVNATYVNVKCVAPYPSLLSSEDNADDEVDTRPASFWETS
In short: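 Human MET at lot-optimised concentration in 50 mM Tris pH 7.4 buffer with 1 mM DTT, compound at 1% DMSO final; enzyme starts the reaction, 60 min at RT.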

Chain of RON (human) (Q04912 25-1400): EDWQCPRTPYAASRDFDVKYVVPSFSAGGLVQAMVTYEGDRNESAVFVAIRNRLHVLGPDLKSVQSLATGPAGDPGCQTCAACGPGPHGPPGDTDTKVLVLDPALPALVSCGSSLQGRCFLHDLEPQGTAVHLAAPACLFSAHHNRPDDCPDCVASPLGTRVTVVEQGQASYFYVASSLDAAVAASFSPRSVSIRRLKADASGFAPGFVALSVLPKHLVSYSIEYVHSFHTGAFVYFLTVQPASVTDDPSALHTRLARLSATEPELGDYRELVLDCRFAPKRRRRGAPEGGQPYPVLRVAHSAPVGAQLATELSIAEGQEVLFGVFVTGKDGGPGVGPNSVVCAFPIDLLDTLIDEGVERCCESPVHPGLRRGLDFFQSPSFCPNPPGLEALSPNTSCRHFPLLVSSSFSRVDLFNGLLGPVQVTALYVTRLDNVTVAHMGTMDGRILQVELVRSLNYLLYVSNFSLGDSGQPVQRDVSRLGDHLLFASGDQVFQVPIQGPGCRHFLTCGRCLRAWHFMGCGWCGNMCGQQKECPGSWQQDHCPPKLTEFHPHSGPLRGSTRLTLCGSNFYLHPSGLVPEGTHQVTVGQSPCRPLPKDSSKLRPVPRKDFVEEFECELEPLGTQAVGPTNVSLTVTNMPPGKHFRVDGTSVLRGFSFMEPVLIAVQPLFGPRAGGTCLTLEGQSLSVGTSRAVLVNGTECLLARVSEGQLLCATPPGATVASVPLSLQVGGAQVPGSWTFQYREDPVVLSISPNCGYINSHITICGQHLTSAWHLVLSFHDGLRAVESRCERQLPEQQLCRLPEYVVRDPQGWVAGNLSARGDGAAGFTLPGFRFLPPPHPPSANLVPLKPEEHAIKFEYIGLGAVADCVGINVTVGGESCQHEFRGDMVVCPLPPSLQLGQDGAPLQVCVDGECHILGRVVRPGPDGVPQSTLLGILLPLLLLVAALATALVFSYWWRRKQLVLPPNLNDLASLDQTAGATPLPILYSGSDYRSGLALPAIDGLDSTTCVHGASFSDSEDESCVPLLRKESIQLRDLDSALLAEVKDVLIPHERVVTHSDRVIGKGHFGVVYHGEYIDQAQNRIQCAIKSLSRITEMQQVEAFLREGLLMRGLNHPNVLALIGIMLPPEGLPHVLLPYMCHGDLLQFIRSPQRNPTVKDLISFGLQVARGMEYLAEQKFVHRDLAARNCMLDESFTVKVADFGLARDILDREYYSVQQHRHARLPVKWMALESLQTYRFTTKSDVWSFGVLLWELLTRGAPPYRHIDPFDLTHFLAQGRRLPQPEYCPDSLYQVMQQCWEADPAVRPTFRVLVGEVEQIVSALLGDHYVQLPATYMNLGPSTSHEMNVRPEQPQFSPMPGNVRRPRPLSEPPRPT

SMILES	IC50 [1] [µM]	IC50 [2] [µM]
CC(C)OC(=O)N1CC=C(c2coc3c(O[C@H](C)c4c(Cl)ccc(F)c4Cl)c(N)ncc23)CC1 [Example 53, 4-{6-Amino-7-[(R)-1-(2,6-dichloro-3-fluorophenyl)-ethoxy]-furo[3,2-c]pyridin-3-yl}-3,6-dihydro-2H-pyridine-1-carboxylic acid isopropyl ester]	0.5 to 5	0.5 to 5
CC(Oc1c(N)ncc2c(-c3cnn(C4CCNCC4)c3)coc12)c1ccc(C#N)cc1 (centres unmarked) [Example 394, 4-{1-[6-Amino-3-(1-piperidin-4-yl-1H-pyrazol-4-yl)furo[3,2-c]pyridin-7-yloxy]ethyl}benzonitrile]	0.5 to 5	< 0.5
C[C@@H](Oc1c(N)ncc2c(-c3cc(C(=O)N4CCN(C)CC4)cs3)coc12)c1c(Cl)ccc(F)c1Cl [Example 332, (5-{6-Amino-7-[(R)-1-(2,6-dichloro-3-fluorophenyl)ethoxy]furo[3,2-c]pyridin-3-yl}thiophen-3-yl)-(4-methylpiperazin-1-yl)methanone]	5 to 20	0.5 to 5
C[C@@H](Oc1c(N)ncc2c(-c3csc(CN)c3)coc12)c1c(Cl)ccc(F)c1Cl [Example 310, 3-(5-Aminomethylthiophen-3-yl)-7-[(R)-1-(2,6-dichloro-3-fluoro-phenyl)ethoxy]furo[3,2-c]pyridin-6-ylamine]	< 0.5	< 0.5
C[C@@H](Oc1c(N)ncc2c(C3=CCN(/C(=N\C#N)N(C)C)CC3)coc12)c1c(Cl)ccc(F)c1Cl [Example 196, 4-{6-Amino-7-[(R)-1-(2,6-dichloro-3-fluorophenyl)ethoxy]-furo[3,2-c]pyridin-3-yl}-N,N-cyano-N,N-dimethyl-3,6-dihydro-2H-pyridine-1-carboxamidine]	0.5 to 5	0.5 to 5
C[C@@H](Oc1c(N)ncc2c(-c3nccs3)coc12)c1c(Cl)ccc(F)c1Cl [Example 135, 7-[(R)-1-(2,6-Dichloro-3-fluorophenyl)-ethoxy]-3-thiazol-2-ylfuro[3,2-c]pyridin-6-ylamine]	0.5 to 5	0.5 to 5
C[C@@H](Oc1c(N)ncc2c(C3=CCN(C(=O)c4cnc[nH]4)CC3)coc12)c1c(Cl)ccc(F)c1Cl [Example 233, (4-{6-Amino-7-[(R)-1-(2,6-dichloro-3-fluorophenyl)ethoxy]-furo[3,2-c]pyridin-3-yl}-3,6-dihydro-2H-pyridin-1-yl)-(3H-imidazol-4-yl)-methanone]	0.5 to 5	0.5 to 5
C[C@@H](Oc1c(N)ncc2c(C3=CCN(C(=O)[C@H]4CCCNC4)CC3)coc12)c1c(Cl)ccc(F)c1Cl [Example 240, (4-{6-Amino-7-[(R)-1-(2,6-dichloro-3-fluorophenyl)ethoxy]-furo[3,2-c]pyridin-3-yl}-3,6-dihydro-2H-pyridin-1-yl)-(S)-piperidin-3-ylmethanone]	< 0.5	< 0.5
C[C@@H](Oc1c(N)ncc2ccoc12)c1nnc2ccc(-c3ccccc3)nn12 [Example 471, 7-[(1R)-1-(6-phenyl[1,2,4]triazolo[4,3-b]pyridazin-3-yl)ethoxy]furo[3,2-c]pyridin-6-amine]	> 20	5 to 20
C[C@@H](Oc1c(N)ncc2c(-c3cncc(C(=O)N4CCOCC4)c3)coc12)c1c(Cl)ccc(F)c1Cl [Example 282, (5-{6-Amino-7-[(R)-1-(2,6-dichloro-3-fluorophenyl)ethoxy]furo[3,2-c]pyridin-3-yl}pyridin-3-yl)morpholin-4-ylmethanone]	5 to 20	0.5 to 5
C[C@@H](Oc1c(N)ncc2c(C3=CCN(C(=O)[C@@H](N)Cc4cnc[nH]4)CC3)coc12)c1c(Cl)ccc(F)c1Cl [Example 263, (2S)-2-Amino-1-[4-{6-amino-7-[(1R)-1-(2,6-dichloro-3-fluoro-phenyl)ethoxy]furo[3,2-c]pyridin-3-yl}-3,6-dihydropyridin-1(2H)-yl]-3-(1H-imidazol-5-yl)propan-1-one]	< 0.5	< 0.5
Cc1cccc(C(C)Oc2c(N)ncc3c(-c4cnn(C5CCNCC5)c4)coc23)c1 (centres unmarked) [Example 343, 3-(1-Piperidin-4-yl-1H-pyrazol-4-yl)-7-(1-m-tolylethoxy)furo[3,2-c]pyridin-6-ylamine]	0.5 to 5	0.5 to 5
C[C@@H](Oc1c(N)ncc2c(-c3cncc(C(=O)NC(C)(C)C)c3)coc12)c1c(Cl)ccc(F)c1Cl [Example 280, 5-{6-Amino-7-[(R)-1-(2,6-dichloro-3-fluorophenyl)ethoxy]furo[3,2-c]pyridin-3-yl}-N-tert-butylnicotinamide]	5 to 20	0.5 to 5

Source: patent US8022206B2 (OSI Pharmaceuticals, LLC, priority 2008, dated 2011)
